biological target: T1, TDO2 (Homo sapiens, UniProt P48775); assay: TDO2 cell assay (NFK GreenScreen, SW48 cells); format: cell-based; conditions: SW48 cells (high TDO expressing), 200 uM tryptophan, 24 hours; Table 3; read-out: TDO2 Cell Fluor EC50
T1 construct: decreased levels of NFK in SW48 cells (high TDO expressing cells)
T1 sequence (P48775 whole entry): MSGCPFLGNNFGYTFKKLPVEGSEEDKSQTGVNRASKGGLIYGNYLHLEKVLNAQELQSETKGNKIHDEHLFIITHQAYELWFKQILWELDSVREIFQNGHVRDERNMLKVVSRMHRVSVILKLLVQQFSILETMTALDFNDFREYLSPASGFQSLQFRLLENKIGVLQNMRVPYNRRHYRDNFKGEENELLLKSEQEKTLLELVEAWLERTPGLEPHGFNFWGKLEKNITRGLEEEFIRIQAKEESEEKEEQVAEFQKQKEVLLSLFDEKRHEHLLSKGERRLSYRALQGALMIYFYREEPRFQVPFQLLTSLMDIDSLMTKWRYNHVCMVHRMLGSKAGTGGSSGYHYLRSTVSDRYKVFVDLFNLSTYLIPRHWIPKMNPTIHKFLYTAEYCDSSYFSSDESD

Compound	EC50
NC(=O)C1([C@@H](O)[C@@H]2c3ccccc3-c3cncn32)CC1 [Example 165b, 1-((R)-hydroxy ((S)-5H-imidazo[5,1-a]isoindol-5-yl)methyl)cyclopropane-1-carboxamide]	> 25000 nM
OC(c1ccncc1)C1c2ccccc2-c2cncn21 (single isomer, unassigned) [Example 152b]	> 25000 nM
O=S(=O)(C1CC1)N1CCC(C2c3ccccc3-c3cncn32)C(O)C1 (mixture of isomers) [Example 77b, (3S,4SR)-1-(cyclopropylsulfonyl)-4-((S)-5H-imidazo[5,1-a]isoindol-5-yl)piperidin-3-ol]	86 nM
OC1(C2c3ccccc3-c3cncn32)CCC1 (single isomer, unassigned) [Example 47b]	> 25000 nM
OCC(O)C1c2ccccc2-c2cncn21 (single isomer, unassigned) [Example 49b, 1-(5H-imidazo[5,1-a]isoindol-5-yl)ethane-1,2-diol]	19600 nM
O[C@@H]1CCOC[C@H]1[C@H]1c2ccc(F)cc2-c2cncn21 (single isomer, unassigned) [Example 34a]	1800 nM
CC(C)S(=O)(=O)N1CC[C@@H]([C@H]2c3ccccc3-c3cncn32)[C@H](O)C1 (single isomer, unassigned) [Example 80a]	> 25000 nM
CC1(C)CCCCC1(O)C1c2ccccc2-c2cncn21 (single isomer, unassigned) [Example 164a]	40 nM
CCS(=O)(=O)N1CC(O)C(C2c3ccccc3-c3cncn32)C1 (single isomer, unassigned) [Example 40b]	16000 nM
Cc1ccc2c(c1)-c1cncn1C2C1COCC1O (single isomer, unassigned) [Example 171a]	999 nM
CCS(=O)(=O)N1CCC(O)C(C2c3ccccc3-c3cncn32)C1 (single isomer, unassigned) [Example 15c]	7500 nM
CC(O)(c1ncc[nH]1)C1c2ccccc2-c2cncn21 (single isomer, unassigned) [Example 143a]	> 25000 nM
CC(C)C(O)C1c2ccccc2-c2cncn21 (single isomer, unassigned) [Example 51c]	110 nM
NS(=O)(=O)N1CCC2(CCC(C3c4ccccc4-c4cncn43)C2O)CC1 (single isomer, unassigned) [Example 182d]	92 nM
CS(=O)(=O)N1CCC(C2c3ccccc3-c3cncn32)C(O)C1 (single isomer, unassigned) [Example 79a]	8100 nM
CS(=O)(=O)N1CCC(O)C(C2c3ccc(F)cc3-c3cncn32)C1 (single isomer, unassigned) [Example 118c]	13000 nM
OC1(C2c3ccccc3-c3cncn32)CCC(F)(F)CC1 (racemic) [Example 53, 4,4-difluoro-1-(5H-imidazo[5,1-a]isoindol-5-yl)cyclohexan-1-ol]	170 nM
CCS(=O)(=O)N1CCC2(CCC(C3c4ccccc4-c4cncn43)C2O)CC1 (single isomer, unassigned) [Example 76e]	250 nM
CC1(O)CCC1C1c2ccccc2-c2cncn21 (single isomer, unassigned) [Example 35d]	350 nM
OC1C(C2c3ccccc3-c3cncn32)CC12CCOCC2 (single isomer, unassigned) [Example 57f]	730 nM
O=S(=O)(C1CC1)N1CC[C@@H]([C@@H]2c3ccccc3-c3cncn32)[C@H](O)C1 (single isomer, unassigned) [Example 81a]	5300 nM
OCC(O)C1c2ccccc2-c2cncn21 (single isomer, unassigned) [Example 49c, 1-(5H-imidazo[5,1-a]isoindol-5-yl)ethane-1,2-diol]	> 25000 nM
CC(C)(C)OC(=O)N1CCCC(O)(C2c3ccccc3-c3cncn32)C1 (single isomer, unassigned) [Example 127c]	760 nM
OC1COCC1C1c2ccc(F)cc2-c2cncn21 (single isomer, unassigned) [Example 30a]	260 nM
OC(C1c2ccccc2-c2cncn21)C1(F)CC1 (single isomer, unassigned) [Example 154a]	130 nM
CCS(=O)(=O)N1CCC2(CCC(C3c4ccccc4-c4cncn43)C2O)CC1 (single isomer, unassigned) [Example 76a]	9500 nM
CC(O)(c1ncc[nH]1)C1c2ccccc2-c2cncn21 (single isomer, unassigned) [Example 143d]	> 25000 nM
CS(=O)(=O)N1CCC2(CC1)CC(C1c3ccccc3-c3cncn31)C2O (single isomer, unassigned) [Example 179f]	120 nM
OC1CC2(CCC2)C1C1c2ccccc2-c2cncn21 (single isomer, unassigned) [Example 67a]	1200 nM

The next lines start with the values.

EC50	Compound
810 nM	CS(=O)(=O)c1ccc2c(c1)OCC(C1c3ccccc3-c3cncn31)C2O (single isomer, unassigned) [Example 91f]
61 nM	O[C@@H]1c2ncccc2CC[C@H]1[C@H]1c2ccccc2-c2cncn21 [Example 63a, (7S,8S)-7-((S)-5H-imidazo[5,1-a]isoindol-5-yl)-5,6,7,8-tetrahydroquinolin-8-ol]
> 25000 nM	Nc1ncc2c(n1)CCC(C1c3ccccc3-c3cncn31)C2O (single isomer, unassigned) [Example 111f]
> 25000 nM	OC1c2cnnn2CCC1C1c2ccccc2-c2cncn21 (single isomer, unassigned) [Example 139a]
21000 nM	N#Cc1cnc2c(c1)CCC(C1c3ccccc3-c3cncn31)C2O (single isomer, unassigned) [Example 107c]
71 nM	CC1(C)COCC(C2c3ccccc3-c3cncn32)C1O (single isomer, unassigned) [Example 66g]
> 25000 nM	OC1COCC1C1c2ccccc2-c2cncn21 (single isomer, unassigned) [Example 26d]
5800 nM	OC1c2nccn2CCC1C1c2ccccc2-c2cncn21 (single isomer, unassigned) [Example 88f]
3800 nM	OC1c2cnncc2CCC1C1c2ccccc2-c2cncn21 (single isomer, unassigned) [Example 112f]
14000 nM	NC(=O)c1ccc2c(n1)CCC(C1c3ccccc3-c3cncn31)C2O (single isomer, unassigned) [Example 104d]
16000 nM	OC1CCC1C1c2ccccc2-c2cncn21 (single isomer, unassigned) [Example 01h]
1600 nM	OC1c2cnccc2CC1C1c2ccccc2-c2cncn21 (single isomer, unassigned) [Example 71d]
1000 nM	N#Cc1ccc2c(c1)[C@H](O)[C@@H]([C@@H]1c3ccccc3-c3cncn31)CC2 [Example 113a, (7R,8R)-8-hydroxy-7-((R)-5H-imidazo[5,1-a]isoindol-5-yl)-5,6,7,8-tetrahydronaphthalene-2-carbonitrile]
520 nM	OC1CCCOCC1C1c2ccccc2-c2cncn21 (single isomer, unassigned) [Example 86b]
11000 nM	OC1CC2(CC2)C1C1c2ccccc2-c2cncn21 (single isomer, unassigned) [Example 72f]
3300 nM	N#Cc1ccc2c(c1)C(O)C(C1c3ccccc3-c3cncn31)CC2 (single isomer, unassigned) [Example 113g]

EC50	Compound
32 nM	O[C@@H]1c2ccccc2CC[C@H]1[C@H]1c2ccccc2-c2cncn21 [Example 102e, (1S,2S)-2-((S)-5H-imidazo[5,1-a]isoindol-5-yl)-1,2,3,4-tetrahydronaphthalen-1-ol]
4100 nM	NC(=O)c1ccc2c(c1)CCC(C1c3ccccc3-c3cncn31)C2O (single isomer, unassigned) [Example 60b]
> 25000 nM	CC(=O)N1CC[C@H](O)[C@@H]([C@H]2c3ccccc3-c3cncn32)C1 (single isomer, unassigned) [Example 12c]
> 25000 nM	OC1c2cncn2CC[C@@H]1[C@@H]1c2ccccc2-c2cncn21 (stereo in doubt) [Example 07d, (7R,8S)-7-((R)-5H-imidazo[5,1-a]isoindol-5-yl)-5,6,7,8-tetrahydroimidazo[1,5-a]pyridin-8-ol]
930 nM	OC1c2nonc2CCC1C1c2ccccc2-c2cncn21 (single isomer, unassigned) [Example 163h]
83 nM	O[C@@H]1c2ncccc2CC[C@H]1[C@H]1c2ccccc2-c2cncn21 (single isomer, unassigned) [Example 126b]
1400 nM	CN1CC[C@@H]([C@H]2c3ccccc3-c3cncn32)[C@H](O)C1 [Example 83b, (3S,4S)-4-((S)-5H-imidazo[5,1-a]isoindol-5-yl)-1-methylpiperidin-3-ol]
> 25000 nM	O=c1cccc2n1CCC(C1c3ccccc3-c3cncn31)C2O (single isomer, unassigned) [Example 29a, 1-hydroxy-2-(5H-imidazo[5,1-a]isoindol-5-yl)-3,4-dihydro-1H-quinolizin-6(2H)-one]
330 nM	OC1c2cnnn2CCC1C1c2ccccc2-c2cncn21 (single isomer, unassigned) [Example 146a]
510 nM	OC1c2ccccc2CC1C1c2ccccc2-c2cncn21 (single isomer, unassigned) [Example 19b]
14000 nM	O[C@H]1CCC[C@H]1[C@@H]1c2ccccc2-c2cncn21 [Example 02d, (1S,2S)-2-((R)-5H-imidazo[5,1-a]isoindol-5-yl)cyclopentan-1-ol]
90 nM	NC(=O)c1ccc2c(c1)C(O)C(C1c3ccccc3-c3cncn31)CC2 (single isomer, unassigned) [Example 122e]
300 nM	OC1CCCCC1C1c2ccccc2-c2cncn21 (single isomer, unassigned) [Example 03f]
1100 nM	OC1c2cccnc2CCC1C1c2ccccc2-c2cncn21 (single isomer, unassigned) [Example 31e]
77 nM	O[C@H]1CCCC[C@H]1[C@H]1c2ccccc2-c2cncn21 [Example 03a, (1S,2S)-2-((S)-5H-imidazo[5,1-a]isoindol-5-yl)cyclohexan-1-ol]
